From patent US7763582B2 (University of Medicine and Dentistry Of New Jersey, priority 2006, dated 2010)

How the values were obtained:
fractured femora [1] = assay: Qualitative histology of early fracture callus at day 4; type: in vivo, BB Wistar rats
Excerpt: (§1) A closed mid-diaphyseal fracture was created in the right femur using the following modification of the methods described in Bonnarens, F., and Einhorn, T. A., “Production of a standard closed fracture in laboratory animal bone,” J. Orthop. Res., vol. 2, pages 97-101 (1984). Once a medial, parapatellar incision was made, the patella was dislocated laterally and the interchondylar notch of the distal femur was exposed. An entry hole was made with an 18 gauge needle and the femur was reamed. A 16 gauge teflon cannula was then inserted into the intramedullary canal to stabilize the fracture while a closed midshaft fracture was created unilaterally with the use of a three-point bending, Einhorn fracture machine. Once the fracture was created, the cannula was removed and replaced with a 1.2 mm hollow rod in the Sprague-Dawley rats and a 1 mm Kirschner wire in the BB Wistar rat. […] The animals were allowed to ambulate freely immediately post-fracture.
The fractured femora were resected at day 4, decalcified, embedded and sectioned using standard histological techniques. To identify cartilage formation, sections were stained with Accustain™ Trichrome Staining kit (Masson, Sigma Diagnostics, St. Louis, Mo.) for histologic observation. The staining procedure consisted of fixing the sections in Accustain™ Bouins solution (Sigma Diagnostics, St. Louis, Mo.) overnight. […]

fractured femora [2] = assay: Mechanical (torsional) testing of fractured femora, Sprague-Dawley rats; type: in vivo; conditions: 4 weeks
Excerpt: as §1
(§2) Fractured and contralateral femora were resected at 4 weeks and cleaned of soft tissue. Femora were cleaned of soft tissue and the intramedullary rod was removed. Samples were wrapped in saline (0.9% NaCl) soaked gauze and stored at −20° C. Prior to testing, all femora were removed from the freezer and allowed to thaw to room temperature for three to four hours. The proximal and distal ends of the fractured and contralateral femora were embedded in Wood's metal. Torsional testing was conducted using a servohydraulics machine (MTS Systems Corp., Eden Prairie, Minn.) with a 20 Nm reaction torque cell (Interface, Scottsdale, Ariz.) and tested to failure at a rate of 2.0 deg/sec.
(§3) The peak torque (T), torsional rigidity (TR), […] (G) and the maximum shear stress ( ) were determined through standard equations modeling each femur as a hollow ellipse. In order to compare the biomechanical parameters between different groups, the data was normalized by dividing each fractured femur value by its corresponding intact, contralateral femur value.

fractured femora [3] = assay: Mechanical (torsional) testing of fractured femora, BB Wistar rats (Example 1); type: in vivo; conditions: 4 weeks
Excerpt: as §1, §2, §3

[4] = fractured femora, versus untreated, FIG. 3
[5] = normalized to intact contralateral femora
[6] = fractured femora, versus untreated, FIG. 4

## ultralente insulin
Fractured femora [1]; not present in untreated group
  osteoid matrix in callus: present
Fractured femora [1]; untreated group showed only proliferating chondrocytes, FIG. 2
  chondrocytes in fracture callus (histology): presence of proliferating and hypertrophic chondrocytes
Fractured femora [2]; [4]
  maximum shear stress: significantly increased
  sheer modulus: significantly increased
  torque to failure: significantly increased
  torsional rigidity: significantly increased
Fractured femora [2]; versus untreated group, FIG. 3
  mechanical properties of the fractured femora: improved
Fractured femora [2]; [5]
  percent maximum shear stress: trending towards significance
  percent sheer modulus: significantly increased
  percent torque to failure: trending towards significance
  percent torsional rigidity: significantly increased
Fractured femora [3]; [6]
  maximum shear stress: significantly increased
  sheer modulus: trending towards significance
  torque to failure: significantly increased
  torsional rigidity: trending towards significance
Fractured femora [3]; versus untreated group, FIG. 4
  mechanical properties of the fractured femora: improved
Fractured femora [3]; [5]
  percent sheer modulus: trending towards significance
  percent torsional rigidity: trending towards significance
